Results as given in patent USRE35044E, “Cyanine compounds” (Asahi Chemical Co., Ltd., priority 1987, dated 1995).
Each block holds one compound with its values, some of them ahead of it.

Tests used:
[1] = Absorption maximum and molar absorptivity in solution; type: physicochemical; parameters: ε: unit not given here
[2] = Test for solubility in solvent; type: physicochemical
Procedure: Each of cyanine dyes as shown below in Table 2 was dissolved in methanol and the solubility was determined at room temperature with the results indicated below in Table 2.

SMILES: CCN1C(=CC=CC=CC2=[N+](CC)c3c(OC)cc(OC)cc3C2(C)C)C(C)(C)c2cc(OC)cc(OC)c21 [Preparation Example 1]
- ε ([1]; alcohol): 1.84×10^5
- λmax ([1]; alcohol): 693 nm

SMILES: CCOc1cc(C)c2c(c1)C(C)(C)C(=CC=CC=CC1=[N+](CC)c3c(C)cc(OCC)cc3C1(C)C)N2CC [Preparation Example 7]
- ε ([1]; dichloroethane): 1.75×10^5

SMILES: CCOc1ccc2c(c1)C(C)(C)C(=CC=CC=CC=CC1=[N+](C)c3ccc(OCC)cc3C1(C)C)N2C [Compound A]
- solubility in solvents (in words) [2]: does not exhibit good solubility

The remaining lines, values ahead:

- solubility in solvents (in words) [2]: not satisfactory in solubility
SMILES: CCOc1ccc2c(c1)C(C)(C)C(=CC=CC=CC1=[N+](C)c3ccc(OCC)cc3C1(C)C)N2C [Compound B]

- ε ([1]; dichloromethane): 1.72×10^5
SMILES: CCOc1cc(OCC)c2c(c1)C(C)(C)C(=CC=CC=CC1=[N+](CC)c3c(OCC)cc(OCC)cc3C1(C)C)N2CC [Preparation Example 2]
